These results are taken from US6852526B2, “Transdermal assay with magnetic clamp” (Transform Pharmaceuticals, Inc., priority 2000, dated 2005).

Several values for one entry are separate records, joined by “and”; a condition that tells them apart may be missing. Equal values may be shown once. Where a name gives a salt, the structure may show the parent alone. Read-outs that look alike come from different tables or passages of the source.

The procedure of data set [1]:
Human cadaver skin epidermis was prepared by first separating skin from the underlying fat and then separating the epidermis by heat treatment at 60° C. for 90 seconds using standard techniques.
An apparatus as described in FIG. 6 was assembled, wherein each plate in the apparatus was a rectangular shape having dimensions of 5.030″ (127.76 mm) by 3.365″ (85.48 mm). The apparatus was assembled by first placing a ⅛″ (3.175 mm) thick clear polycarbonate spacer plate 620 on top of an aluminum base plate 610 and aligning screw holes 622 in the spacer plate with screw holes 612 in the base plate. Thereafter, a 4×4 sample array was created on spacer plate 620, as described in Table 2 below:
Punched samples were placed on spacer plate 620 in the 4×4 array of Table 2 one at a time, and the location of each array sample was selected using guide marks 614 on base plate 610 to ensure that each array sample was placed such that it aligned with a donor reservoir 654 in reservoir plate 650. There were 96, 0.020″ (0.508 mm) deep, guide marks 614 on base plate 610, arranged in a 12×8 array which was located 11.24 mm in from the edges of the long sides of base plate 610, and 14.38 mm in from the edges of its short sides. At the time of placement, the release liner on each sample was removed to expose the drug reservoir/adhesive of the sample.
Array locations B3, C1, and D3 were controls without any samples in order to determine the potential impact of lateral diffusion on transdermal transport measurements with this apparatus.
Once all the samples were placed in the array, the piece of heat-stripped human cadaver skin, the size of which was larger than the array of samples, was gently and slowly placed over the samples so as to avoid any air pockets between the skin and the samples. The skin was oriented with the stratum corneum next to the samples. Then, a ¼″ (6.35 mm) thick clear polycarbonate reservoir plate 650 having an 4×4 array of ¼″ (6.35 mm) diameter donor reservoirs 654 was placed over the skin such that all of screw holes 652 on reservoir plate 650 were aligned with the corresponding screw holes 622 of spacer plate 620.
The resulting assembled apparatus 600 was clamped together by sliding a shoulder screw 660 with threads 622 through aligned screw holes 652 at each of the four corners of the assembled apparatus, and tightening each shoulder screw 660 so as to form a seal between reservoir plate 650 and the skin.
[…] of Dulbecco's Phosphate Buffered Saline (PBS) was added to each donor reservoir in the array as the reservoir medium.
After 2 hours, a […] test aliquot of reservoir medium was removed from each donor reservoir 654, and at that time, an additional […] of PBS was added into each donor reservoir 654. Each of the 2-hour test aliquots was placed in an HPLC vial and diluted to […] by addition of […] of 50:50 (v/v) 50 mM potassium phosphate (adjusted to pH 3.0 with phosphoric acid) and acetonitrile.
The foregoing process was repeated at 3 hours, 4 hours, and 5 hours.
The components of the HPLC system used to analyze the test aliquots were a Waters 2790 Separations Module, a Waters Photodiode Array Detector Model 996, and Waters Millennium 32 v3.2 Chromatography Software (Waters Corp., Milford Mass.).
The HPLC analysis was performed using a Platinum EPS C18 column (Alltech Associates, Muskegan, Mich.) with dimensions of 250 mm×4.6 mm and a […] particle size. The mobile phase was 50:50 (v/v) 50 mM potassium phosphate (adjusted to pH 3.0 with phosphoric acid): acetonitrile, with a flow rate of 1.0 ml/minute. Detection was performed by measuring UV absorbance at a wavelength of 260 nm. The run time was 4 minutes. Injection volume was […]. Column temperature was ambient.

For data set [2] the following is noted: passive experiments; cited from earlier work.
For data set [3] the following is noted: cited from earlier work.
The mark [4] stands for this setting: empty control location (B3, C1, D3), no sample: lateral diffusion, 2 hour.
The mark [5] stands for this setting: empty control location (B3, C1, D3), no sample: lateral diffusion, 3 hour.
The mark [6] stands for this setting: empty control location (B3, C1, D3), no sample: lateral diffusion, 4 hour.
Setting [7] is: sample* (A4, D1): drug reservoir came off the backing with the release liner, 2 hour.
[8] abbreviates: sample* (A4, D1): drug reservoir came off the backing with the release liner, 3 hour.
[9] abbreviates: sample* (A4, D1): drug reservoir came off the backing with the release liner, 4 hour.
Setting [10] is: sample* (A4, D1): drug reservoir came off the backing with the release liner, 5 hour.

In the case of `CN1CCCC1c1cccnc1` (centres unmarked) [Nicotine, nicotine], in data set [1] (detected in donor reservoirs over NICODERM CQ samples), the “transdermal movement of the active component” value is reported as “crossed the skin barrier”. In addition, the “lateral diffusion to adjacent wells” value in data set [1] (donor reservoirs not located over samples) is reported as “sufficiently slower than direct transdermal movement”. The “Nicotine Concentration Of Diluted Test Aliquots” value in data set [1] (setting [4]) was 2.2 mg/mL and 1.5 mg/mL and 2.6 mg/mL; in data set [1] (setting [5]), 2.5 mg/mL and 3.2 mg/mL and 4.0 mg/mL; in data set [1] (setting [6]) it was 4.8 mg/mL and 2.7 mg/mL and 4.2 mg/mL; in data set [1] (setting [7]), 1.0 mg/mL and 1.1 mg/mL; in data set [1] (setting [8]) it was 1.2 mg/mL and 1.4 mg/mL; in data set [1] (setting [9]), 1.4 mg/mL and 1.6 mg/mL. The “Nicotine Concentration Of Diluted Test Aliquots” value in data set [1] (setting [10]) was 1.6 mg/mL and 1.8 mg/mL. Besides, the “Nicotine Concentration Of Original Test Aliquots” value is 22.0 mg/mL and 15.0 mg/mL and 26.0 mg/mL in data set [1] (setting [4]); 25.0 mg/mL and 32.0 mg/mL and 40.0 mg/mL in data set [1] (setting [5]); 48.0 mg/mL and 27.0 mg/mL and 42.0 mg/mL in data set [1] (setting [6]); 10.0 mg/mL and 11.0 mg/mL in data set [1] (setting [7]); 12.0 mg/mL and 14.0 mg/mL in data set [1] (setting [8]); 14.0 mg/mL and 16.0 mg/mL in data set [1] (setting [9]). Besides, in data set [1] (setting [10]), the “Nicotine Concentration Of Original Test Aliquots” value was 16.0 mg/mL and 18.0 mg/mL. In addition, the “Nicotine Accumulation in donor reservoir” value is 1.650 mg and 1.125 mg and 1.950 mg in data set [1] (empty control location (B3, C1, D3), no sample: lateral diffusion, 2 hr); 4.663 mg and 3.150 mg and 4.300 mg in data set [1] (empty control location (B3, C1, D3), no sample: lateral diffusion, 3 hr); 7.075 mg and 4.375 mg and 6.450 mg in data set [1] (empty control location (B3, C1, D3), no sample: lateral diffusion, 4 hr); 10.975 mg and 5.650 mg and 8.925 mg in data set [1] (empty control location (B3, C1, D3), no sample: lateral diffusion, 5 hr); 0.825 mg and 0.750 mg in data set [1] (sample* (A4, D1): drug reservoir came off the backing with the release liner, 2 hr); 1.600 mg and 1.400 mg in data set [1] (sample* (A4, D1): drug reservoir came off the backing with the release liner, 3 hr). Further, the “Nicotine Accumulation in donor reservoir” value in data set [1] (sample* (A4, D1): drug reservoir came off the backing with the release liner, 4 hr) is 2.450 mg and 2.150 mg; in data set [1] (sample* (A4, D1): drug reservoir came off the backing with the release liner, 5 hr) it was 3.400 mg and 3.000 mg.

`CCCCCCCC/C=C\CCCCCCCC(=O)OCC(COC(=O)CCCCCCC/C=C\CCCCCCCC)OC(=O)CCCCCCC/C=C\CCCCCCCC` [glycerol trioleate]: the “corticosterone flux enhancement relative to the passive flux from PBS alone” value in data set [2] is 0.8.

Consider `COC1=CC(=O)C[C@@H](C)[C@]12Oc1c(Cl)c(OC)cc(OC)c1C2=O` [griseofulvin], for which the “Properties: absorption / water solubility” value in data set [3] is listed as “Poor absorption due to its low water”.

On to `CCCCCCCCCCCCCC(=O)OC(C)C` [isopropyl myristate], for which, in data set [2], the “corticosterone flux enhancement relative to the passive flux from PBS alone” value is 5.

On to `CC(=O)O[C@H]1C(=O)[C@@]2(C)[C@H]([C@H](OC(=O)c3ccccc3)[C@]3(O)C[C@H](OC(=O)[C@H](O)[C@@H](NC(=O)c4ccccc4)c4ccccc4)C(C)=C1C3(C)C)[C@]1(OC(C)=O)CO[C@@H]1C[C@@H]2O` [paclitaxel], for which the “Properties: absorption / water solubility” value in data set [3] is on record as “Poor absorption due to its low water”.

With `CC(C)c1nc(CN(C)C(=O)N[C@H](C(=O)N[C@@H](Cc2ccccc2)C[C@H](O)[C@H](Cc2ccccc2)NC(=O)OCc2cncs2)C(C)C)cs1` [ritonavir], in data set [3] (shipping and storage), the “Properties: polymorphic stability” value was “Can undergo a polymorphic shift during”.

In the case of `CC(C)(C)NC(=O)[C@@H]1C[C@@H]2CCCC[C@@H]2CN1C[C@@H](O)[C@H](Cc1ccccc1)NC(=O)[C@H](CC(N)=O)NC(=O)c1ccc2ccccc2n1` [saquinavir], the “Properties: absorption / water solubility” value in data set [3] is “Poor absorption due to its low water”.

Turning to `CCCc1nn(C)c2c(=O)[nH]c(-c3cc(S(=O)(=O)N4CCN(C)CC4)ccc3OCC)nc12` [sildenafil citrate], the “Properties: absorption / water solubility” value in data set [3] is “Poor absorption due to its low water”.

Turning to polyethylene glycol 200 dilaurate, the “corticosterone flux enhancement relative to the passive flux from PBS alone” value in data set [2] was 2.
